Patent publication EP0018155A2, “Novel cephalosporin compounds, a process for the preparation thereof, pharmaceutical compositions containing the same and the use thereof as a therapeutic agent against a microorganism” (NOVO NORDISK A/S, priority 1979, dated 1980)
In brackets after ≈: the same amount, converted by molar mass. Where two headings read alike, the source gives them in different places. Blank lines part the entries; values can stand above or below the compound they belong to.

How the values were obtained:
Assay in all cases: agar serial dilution test (MIC)
Format in all cases: cell-based
[1] = test system: E. coli 01
Protocol: (§1) The antibiotic activity in vitro of some compounds according to the invention and of some previously known compounds was tested by means of an agar serial dilution test. The following compounds were tested: 7β-[2-(2-Aminothiazol-4-yl)-2-diethylphosphoryloxyiminoacetamido] cephalosporanic acid (designated ES 643, 7β-[2-(2-amino- thiazol-4-yl)-2-dimethylphosphoryloxyiminoacetamido] cephalosporanic acid (designated ES 671), 7β-[2-(2-amino- thiazol-4-yl)-2-dimorpholinophosphoryloxyiminoacetamido] cephalosporanic acid (designated ES 656), 7β-[2-(2-amino- thiazol-4-yl)-2-methylmethylphosphonyloxyiminoacetamido] cephalosporanic acid (designated ES 682), 7β-[2-(2-amino- thiazol-4-yl)-2-hydroxyiminoacetamido] cephalosporanic acid (designated A), cefuroxime (designated B), and cephalotin (designated C). MIC designates minimum inhibitory concentration.

[2] = test system: E. coli 04
Protocol: as §1

[3] = test system: K. edwardsii K1
Protocol: as §1

[4] = test system: K. pneumoniae K8; conditions: Klebsiella pneumoniae
Protocol: as §1

[5] = test system: P. mirabilis 2255
Protocol: as §1

[6] = test system: P. mirabilis 2311
Protocol: as §1

[7] = test system: P. mirabilis 682
Protocol: as §1

[8] = test system: P. morganii 18
Protocol: as §1

[9] = test system: P. morganii 69
Protocol: as §1

[10] = test system: P. vulgaris 16868
Protocol: as §1

[11] = test system: P. vulgaris 17028
Protocol: as §1

[12] = test system: P. vulgaris 5209
Protocol: as §1

[13] = test system: S. albus 12228
Protocol: as §1

[14] = test system: S. albus 3348
Protocol: as §1

[15] = test system: S. albus 3578
Protocol: as §1

[16] = test system: S. aureus 13709
Protocol: as §1

[17] = test system: S. aureus 209P; conditions: Staphylococcus aureus
Protocol: as §1

[18] = test system: S. aureus 3349
Protocol: as §1

[19] = test system: S. aureus 3356
Protocol: as §1

[20] = test system: S. pyogenes 12334
Protocol: as §1

[21] = test system: S. pyogenes 12384
Protocol: as §1

[22] = Escherichia coli, E. coli 01, read-out: MIC value
[23] = Escherichia coli, E. coli 04, read-out: MIC value
[24] = K. edwardsii K1, read-out: MIC value
[25] = K. pneumoniae K8, read-out: MIC value
[26] = Proteus mirabilis, P. mirabilis 2255, read-out: MIC value
[27] = Proteus mirabilis, P. mirabilis 2311, read-out: MIC value
[28] = Proteus mirabilis, P. mirabilis 682, read-out: MIC value
[29] = Morganella morganii, P. morganii 18, read-out: MIC value
[30] = Morganella morganii, P. morganii 69, read-out: MIC value
[31] = Proteus vulgaris, P. vulgaris 16868, read-out: MIC value
[32] = Proteus vulgaris, P. vulgaris 17028, read-out: MIC value
[33] = Proteus vulgaris, P. vulgaris 5209, read-out: MIC value
[34] = Staphylococcus albus, S. albus 12228, read-out: MIC value
[35] = Staphylococcus albus, S. albus 3348, read-out: MIC value
[36] = Staphylococcus albus, S. albus 3578, read-out: MIC value
[37] = Staphylococcus aureus, S. aureus 13709, read-out: MIC value
[38] = S. aureus 209P, read-out: MIC value
[39] = Staphylococcus aureus, S. aureus 3349*, penicillin-resistant strain, read-out: MIC value
[40] = Staphylococcus aureus, S. aureus 3356*, penicillin-resistant strain, read-out: MIC value
[41] = Streptococcus pyogenes, S. pyogenes 12334, read-out: MIC value
[42] = Streptococcus pyogenes, S. pyogenes 12384, read-out: MIC value

MIC [1, 22]: < 0.1 µg/mL
MIC [2, 23]: 0.2 µg/mL (≈ 0.303 µM)
MIC [3, 24]: 1.6 µg/mL (≈ 2.43 µM)
MIC [4, 25]: 0.4 µg/mL (≈ 0.606 µM)
MIC [5, 26]: 0.2 µg/mL (≈ 0.303 µM)
MIC [6, 27]: 0.2 µg/mL (≈ 0.303 µM)
MIC [7, 28]: < 0.1 µg/mL
MIC [8, 29]: 1.6 µg/mL (≈ 2.43 µM)
MIC [9, 30]: 3.1 µg/mL (≈ 4.7 µM)
MIC [10, 31]: 12.5 µg/mL (≈ 18.9 µM)
MIC [11, 32]: 25 µg/mL (≈ 37.9 µM)
MIC [12, 33]: 50 µg/mL (≈ 75.8 µM)
MIC [13, 34]: 0.2 µg/mL (≈ 0.303 µM)
MIC [14, 35]: 0.2 µg/mL (≈ 0.303 µM)
MIC [15, 36]: 0.2 µg/mL (≈ 0.303 µM)
MIC [16, 37]: 0.2 µg/mL (≈ 0.303 µM)
MIC [17, 38]: 0.2 µg/mL (≈ 0.303 µM)
MIC [18, 39]: 0.4 µg/mL (≈ 0.606 µM)
MIC [19, 40]: 0.2 µg/mL (≈ 0.303 µM)
MIC [20, 41]: < 0.1 µg/mL
MIC [21, 42]: < 0.1 µg/mL
Structure (SMILES): CC(=O)OCC1=C(C(=O)O)N2C(=O)C(NC(=O)C(=NOP(=O)(N3CCOCC3)N3CCOCC3)c3csc(N)n3)C2SC1 (stereo not drawn) [ES 656, 7β-[2-(2-amino-thiazol-4-yl)-2-dimorpholinophosphoryloxyiminoacetamido] cephalosporanic acid]

MIC [1, 22]: 3.1 µg/mL (≈ 7.3 µM)
MIC [2, 23]: 6.2 µg/mL (≈ 14.6 µM)
MIC [3, 24]: 6.2 µg/mL (≈ 14.6 µM)
MIC [4, 25]: 12.5 µg/mL (≈ 29.5 µM)
MIC [5, 26]: 1.6 µg/mL (≈ 3.77 µM)
MIC [6, 27]: 0.8 µg/mL (≈ 1.89 µM)
MIC [7, 28]: 3.1 µg/mL (≈ 7.3 µM)
MIC [8, 29]: 25 µg/mL (≈ 58.9 µM)
MIC [9, 30]: 25 µg/mL (≈ 58.9 µM)
MIC [10, 31]: > 100 µg/mL
MIC [11, 32]: > 100 µg/mL
MIC [12, 33]: > 100 µg/mL
MIC [13, 34]: 0.4 µg/mL (≈ 0.943 µM)
MIC [14, 35]: 0.2 µg/mL (≈ 0.471 µM)
MIC [15, 36]: 0.2 µg/mL (≈ 0.471 µM)
MIC [16, 37]: 0.8 µg/mL (≈ 1.89 µM)
MIC [17, 38]: 1.6 µg/mL (≈ 3.77 µM)
MIC [18, 39]: 0.8 µg/mL (≈ 1.89 µM)
MIC [19, 40]: 0.8 µg/mL (≈ 1.89 µM)
MIC [20, 41]: < 0.1 µg/mL
MIC [21, 42]: < 0.1 µg/mL
Structure (SMILES): CO/N=C(\C(=O)N[C@@H]1C(=O)N2C(C(=O)O)=C(COC(N)=O)CS[C@H]12)c1ccco1 [B, cefuroxime, reference compound]

Structure (SMILES): COP(=O)(OC)ON=C(C(=O)NC1C(=O)N2C(C(=O)O)=C(COC(C)=O)CSC12)c1csc(N)n1 (stereo not drawn) [ES 671, 7β-[2-(2-amino-thiazol-4-yl)-2-dimethylphosphoryloxyiminoacetamido] cephalosporanic acid]
MIC ([1]; Escherichia coli, 01, read-out: MIC value in μg/ml): 0.2 µg/mL (≈ 0.364 µM)
MIC ([2]; Escherichia coli, 04, read-out: MIC value in μg/ml): 0.4 µg/mL (≈ 0.728 µM)
MIC ([3]; read-out: MIC value in μg/ml): 0.2 µg/mL (≈ 0.364 µM)
MIC ([4]; K8, read-out: MIC value in μg/ml): 0.4 µg/mL (≈ 0.728 µM)
MIC ([5]; Proteus mirabilis, 2255, read-out: MIC value in μg/ml): 0.1 µg/mL (≈ 0.182 µM)
MIC ([6]; Proteus mirabilis, 2311, read-out: MIC value in μg/ml): < 0.1 µg/mL
MIC ([7]; Proteus mirabilis, 682, read-out: MIC value in μg/ml): < 0.1 µg/mL
MIC ([8]; Morganella morganii, 18, read-out: MIC value in μg/ml): < 0.1 µg/mL
MIC ([9]; Morganella morganii, 69, read-out: MIC value in μg/ml): 0.4 µg/mL (≈ 0.728 µM)
MIC ([10]; Proteus vulgaris, 16868, read-out: MIC value in μg/ml): < 0.1 µg/mL
MIC ([11]; Proteus vulgaris, 17028, read-out: MIC value in μg/ml): < 0.1 µg/mL
MIC ([12]; Proteus vulgaris, 5209, read-out: MIC value in μg/ml): 0.2 µg/mL (≈ 0.364 µM)
MIC ([13]; Staphylococcus albus, 12228, read-out: MIC value in μg/ml): 0.4 µg/mL (≈ 0.728 µM)
MIC ([14]; Staphylococcus albus, 3348, read-out: MIC value in μg/ml): 0.8 µg/mL (≈ 1.46 µM)
MIC ([15]; Staphylococcus albus, 3578, read-out: MIC value in μg/ml): 0.8 µg/mL (≈ 1.46 µM)
MIC ([16]; Staphylococcus aureus, 13709, read-out: MIC value in μg/ml): 1.6 µg/mL (≈ 2.91 µM)
MIC ([17]; 209P, read-out: MIC value in μg/ml): 3.1 µg/mL (≈ 5.64 µM)
MIC ([18]; Staphylococcus aureus, 3349, read-out: MIC value in μg/ml): 1.6 µg/mL (≈ 2.91 µM)
MIC ([19]; Staphylococcus aureus, 3356, read-out: MIC value in μg/ml): 1.6 µg/mL (≈ 2.91 µM)
MIC ([20]; Streptococcus pyogenes, 12334, read-out: MIC value in μg/ml): < 0.1 µg/mL
MIC ([21]; Streptococcus pyogenes, 12384, read-out: MIC value in μg/ml): < 0.1 µg/mL
